Source: patent US12459951B2, “Compounds that interact with RAS superfamily proteins for treatment of cancers, inflammatory diseases, rasopathies, and fibrotic disease” (SHY Therapeutics, LLC, priority 2022, dated 2025)

Key:
TNF-alpha = TNF-alpha Quantification Assay (ELISA), LPS-stimulated RAW 264.7; assay type: cell-based; settings: Mus musculus, RAW264.7; at 10 μM; read-out: TNFα: % inh.
Erk1/2 phosphorylation = assay: Erk1/2 Phosphorylation Assay (western blot), Panc-1; assay type: cell-based, human; settings: at 10 μM, * = activation
In short: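 Phospho-Erk1/2 (Thr202/Tyr204) was detected by western blot in lysates of Panc-1 cells (KRas G12D). These had 6 h, 37° C exposure to 10 μM compound or a dilution series for IC50, in 0.3% DMSO. Cells were either starved overnight in 0.5% FBS with a 15-min 1.5 ng/ml EGF pulse, or kept unstimulated in 10% FBS.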

Rac-1 = biological target: T1, Rac-1 (Homo sapiens, UniProt P63000); assay: Ras GTP Binding Domain Inhibition Assay (Ras Superfamily Assay); settings: read-out: Rac-1: % inh.
T1 construct: made in house
In short: (§1)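 Binding of 100 nM fluorescent GTP (Cy3 or Cy5, 45 min, room temperature) was read after washes from plate-captured His-tagged protein. Beforehand, compounds at 20 μM or in dilution series for IC50 sat 3 h on the protein in Tris buffer pH 7.4 or 7.0 with 1% DMSO, Sos GEF optionally added for the last hour.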

KRas G12D mutant = assay: as above; settings: at 20 μM; for KRas G12D mutant + SOS: % inh.: with SOS; for KRas G12D mutant: % inh.: without SOS
In short: as §1

KRas wild type = assay: as above; settings: at 20 μM; for KRas wild type + SOS: % inh.: with SOS; for KRas wild type: % inh.: without SOS
In short: as §1

Structure (SMILES)	inhibition at 20 µM (Rac-1) [%]	KRas G12D mutant + SOS: % inh. (KRas G12D mutant)	KRas G12D mutant: % inh. (KRas G12D mutant)	KRas wild type + SOS: % inh. (KRas wild type)	KRas wild type: % inh. (KRas wild type)	inhibition at 10 µM (TNF-alpha) [%]	% inh of Erk1/2 phosphorylation in Panc-1 (Erk1/2 phosphorylation)
Cc1c(-c2ccn(C)n2)cn2nc(-c3nccn3C)nc(Nc3cc(C4CCC4)[nH]n3)c12 [Compound 257, N-(5-Cyclobutyl-1H-pyrazol-3-yl)-5-methyl-2-(1-methyl-1H-imidazol-2-yl)-6-(1-methyl-1H-pyrazol-3-yl)pyrrolo[2,1-f][1,2,4]triazin-4-amine]	50 to 75	D (D = 76-100% inhibition)	D (D = 76-100% inhibition)	D (D = 76-100% inhibition)	C (C = 50-75% inhibition)	25 to 49	C* (46-84% activation)
Cc1c(-c2ccn(C)n2)cn2nc(-c3nccn3C)nc(Nc3cc(C(F)F)[nH]n3)c12 [Compound 258, N-(5-(Difluoromethyl)-1H-pyrazol-3-yl)-5-methyl-2-(1-methyl-1H-imidazol-2-yl)-6-(1-methyl-1H-pyrazol-3-yl)pyrrolo[2,1-f][1,2,4]triazin-4-amine]	0	0 (0 = 0% inhibition)	0 (0 = 0% inhibition)	0 (0 = 0% inhibition)	A (A = 1-25% inhibition)	0	A* (1-25% activation)
Cc1c(-c2ccn(C)n2)cn2nc(-c3nccn3C)nc(Nc3cc(C(F)(F)F)[nH]n3)c12 [Compound 259, 5-Methyl-2-(1-methyl-1H-imidazol-2-yl)-6-(1-methyl-1H-pyrazol-3-yl)-N-(5-(trifluoromethyl)-1H-pyrazol-3-yl)pyrrolo[2,1-f][1,2,4]triazin-4-amine]	76 to 100	D (D = 76-100% inhibition)	C (C = 50-75% inhibition)	D (D = 76-100% inhibition)	C (C = 50-75% inhibition)	0	A* (1-25% activation)
CCOc1cc(Nc2nc(-c3nccn3C)nn3cc(-c4ccn(C)n4)c(C)c23)n[nH]1 [Compound 260, N-(5-Ethoxy-1H-pyrazol-3-yl)-5-methyl-2-(1-methyl-1H-imidazol-2-yl)-6-(1-methyl-1H-pyrazol-3-yl)pyrrolo[2,1-f][1,2,4]triazin-4-amine]	50 to 75	C (C = 50-75% inhibition)	C (C = 50-75% inhibition)	D (D = 76-100% inhibition)	D (D = 76-100% inhibition)	25 to 49	A* (1-25% activation)
Cc1c(-c2ccn(C)n2)cn2nc(-c3nccn3C)nc(-n3[nH]c(N)cc3=O)c12 [Compound 261, 5-Amino-2-(5-methyl-2-(1-methyl-1H-imidazol-2-yl)-6-(1-methyl-1H-pyrazol-3-yl)pyrrolo[2,1-f][1,2,4]triazin-4-yl)-1,2-dihydro-3H-pyrazol-3-one]	76 to 100	C (C = 50-75% inhibition)	D (D = 76-100% inhibition)	C (C = 50-75% inhibition)	C (C = 50-75% inhibition)	1 to 24	B (26-49% inhibition)
Cc1c(-c2ccn(C)n2)cn2nc(-c3nccn3C)nc(Oc3cc(N)[nH]n3)c12 [Compound 262, 3-((5-Methyl-2-(1-methyl-1H-imidazol-2-yl)-6-(1-methyl-1H-pyrazol-3-yl)pyrrolo[2,1-f][1,2,4]triazin-4-yl)oxy)-1H-pyrazol-5-amine]	50 to 75	D (D = 76-100% inhibition)	D (D = 76-100% inhibition)	C (C = 50-75% inhibition)	B (B = 26-49% inhibition)	0	A (1-25% inhibition)
Cc1c(-c2ccn(C)n2)cn2nc(-c3nccn3C)nc(Nc3cc(-c4ccccc4)[nH]n3)c12 [Compound 263, 5-Methyl-2-(1-methyl-1H-imidazol-2-yl)-6-(1-methyl-1H-pyrazol-3-yl)-N-(5-phenyl-1H-pyrazol-3-yl)pyrrolo[2,1-f][1,2,4]triazin-4-amine]	76 to 100	D (D = 76-100% inhibition)	D (D = 76-100% inhibition)	D (D = 76-100% inhibition)	C (C = 50-75% inhibition)	50 to 74	A (1-25% inhibition)
Cc1c(-c2ccn(C)n2)cn2nc(-c3nccn3C)nc(Nc3cc(-c4cccnc4)[nH]n3)c12 [Compound 264, 5-Methyl-2-(1-methyl-1H-imidazol-2-yl)-6-(1-methyl-1H-pyrazol-3-yl)-N-(5-(pyridin-3-yl)-1H-pyrazol-3-yl)pyrrolo[2,1-f][1,2,4]triazin-4-amine]	76 to 100	D (D = 76-100% inhibition)	C (C = 50-75% inhibition)	D (D = 76-100% inhibition)	C (C = 50-75% inhibition)	25 to 49	B* (26-49% activation)

Now from value to compound, other results behind:

inhibition at 20 µM (Rac-1) [%]	KRas G12D mutant + SOS: % inh. (KRas G12D mutant)	KRas G12D mutant: % inh. (KRas G12D mutant)	KRas wild type + SOS: % inh. (KRas wild type)	KRas wild type: % inh. (KRas wild type)	Structure (SMILES)	inhibition at 10 µM (TNF-alpha) [%]	% inh of Erk1/2 phosphorylation in Panc-1 (Erk1/2 phosphorylation)
76 to 100	D (D = 76-100% inhibition)	C (C = 50-75% inhibition)	D (D = 76-100% inhibition)	–	Cc1c(-c2ccn(C)n2)cn2nc(-c3nccn3C)nc(Nc3cc(-c4ccccn4)[nH]n3)c12 [Compound 265, 5-Methyl-2-(1-methyl-1H-imidazol-2-yl)-6-(1-methyl-1H-pyrazol-3-yl)-N-(5-(pyridin-2-yl)-1H-pyrazol-3-yl)pyrrolo[2,1-f][1,2,4]triazin-4-amine]	25 to 49	A* (1-25% activation)
76 to 100	D (D = 76-100% inhibition)	D (D = 76-100% inhibition)	C (C = 50-75% inhibition)	D (D = 76-100% inhibition)	Cc1c(-c2ccn(C)n2)cn2nc(-c3nccn3C)nc(Nc3cc(-c4ccncc4)[nH]n3)c12 [Compound 266, 5-Methyl-2-(1-methyl-1H-imidazol-2-yl)-6-(1-methyl-1H-pyrazol-3-yl)-N-(5-(pyridin-4-yl)-1H-pyrazol-3-yl)pyrrolo[2,1-f][1,2,4]triazin-4-amine]	0	D (85-100% inhibition)
76 to 100	D (D = 76-100% inhibition)	D (D = 76-100% inhibition)	D (D = 76-100% inhibition)	D (D = 76-100% inhibition)	Cc1[nH]nc(Nc2nc(-c3nccn3C)nn3cc(-c4ccn(C)n4)c(C)c23)c1C [Compound 267, N-(4,5-Dimethyl-1H-pyrazol-3-yl)-5-methyl-2-(1-methyl-1H-imidazol-2-yl)-6-(1-methyl-1H-pyrazol-3-yl)pyrrolo[2,1-f][1,2,4]triazin-4-amine]	1 to 24	D* (85-100% activation)
